Data on eight compounds can be found in US5767268A, “Sulfuric acid esters of amino sugars” (Hoffmann-La Roche Inc., priority 1995, dated 1998).

Where a name gives a salt, the structure may show the parent alone. Read-outs that look alike come from different tables or passages of the source.

One experiment has as its target T1, thrombin (Homo sapiens, UniProt P00734).
T1 construct: purchased Roche Basle (Thrombin Reagent)
The format is biochemical.

The target in a further experiment is T2, Factor Xa (Bos taurus, UniProt P00743).
T2 sequence (P00743 41-180 limits assumed): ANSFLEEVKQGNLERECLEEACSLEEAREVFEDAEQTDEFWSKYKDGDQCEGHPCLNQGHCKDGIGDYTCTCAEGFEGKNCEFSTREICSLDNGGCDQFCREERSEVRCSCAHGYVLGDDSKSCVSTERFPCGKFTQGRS
Nature of the experiment: Blood coagulation inhibition: inhibition of Factor Xa in the Chromogen Substrate Test. The format is biochemical.

A further experiment deals with rat smooth muscle cells. As to the kind of experiment: Antiproliferative activity (ri, relative to heparin) in rat smooth muscle cells. The format is cell-based. On the set-up: key: growth inhibition relative to heparin at 100 μg/ml, same experiment. To be noted: 100 μg/ml, 48 h, relative to heparin at 100 μg/ml in the same experiment. The method, then: Antiproliferative Activity
The antiproliferative activity of a substance is expressed as the ri value which is a comparative value to the corresponding activity of heparin and which was determined in cell cultures as follows: rat smooth muscle cells were applied to cell culture plates in a density of 8×10^3 cells/well (medium: DMEM with 10% FCS. Cultivation at 37° C. and 5% CO2). After 4 hours, the number of adhered cells was determined and the substances to be tested (100 μg/ml, dissolved in H2 O) were added. […] Subsequently, the cells were incubated for 48 h. and thereafter the cell count was determined once more.
The inhibition i of the cell growth, that is, the reduction in the growth rate of the cells in percent compared to the control, was calculated from these values. [formula] the growth rate μbeing calculated as [formula] in which Z is the number of cells and d is the time in days.
Finally, ri --the relative inhibitory activity--which expresses the activity of a substance (at 100 μg/ml) in comparison to the activity of heparin in the same concentration in the same experiment, was calculated: [formula] Blood Coagulation Inhibition

Setting [1] is: with antithrombin III and plasma, S-2238 substrate, 37° C., pH 8.4; read-out: Anticoagulative Activity IC50 Thrombin.
Where [2] appears, read: with antithrombin III and plasma, S-2222 substrate; read-out: Anticoagulative Activity IC50 Factor Xa.
Where [3] appears, read: read-out: Anticoagulative Activity IC50 Thrombin; with antithrombin III and plasma, S-2238 substrate, 37° C., pH 8.4.
The mark [4] stands for this setting: read-out: Anticoagulative Activity IC50 Factor Xa; with antithrombin III and plasma, S-2222 substrate.

Broadly, the IC50 is the concentration that gives 50% inhibition.

Experimental for Factor Xa: (§1) Inhibition of thrombin or Factor Xa in the Chromogen Substrate Test (Teien et al., Thrombosis Research 10, 399-410 (1977)): The determination was effected in a Cobas-Bio centrifugal automatic spectrophotometer. The buffer solution used consisted of 50 mM Tris buffer, 180 mM NaCl, 7.5 mM EDTA Na2, 1% PEG 6000 and 0.02% Tween 80, pH 8.4. The test solution consisted of 50 μl of buffer, 30 μl of antithombin III (1U/ml, Kabi Diagnostica) and 20 μl of plasma which contained various concentrations of test compounds. 30 μl of sample solution and 20 μl of water with 180 μl of thrombin (1U/ml, Thrombin Reagent Roche Basle) were added to the test cuvette in the automatic analyzer. After incubation at 37° C. for 240 seconds, 60 μl of S-2238 (H-D-Phe-Pip-Arg-NH.pNA, Kabi Diagnostica, Mondal, Sweden, 0.75 mM in water) and 20 μl of water were added. The liberation of pNA (p-nitro-aniline) was followed during 60 seconds at 405 nm in 10 second intervals in comparison to water as the blank.
The inhibition of Factor Xa was measured in the same manner using a solution of Factor Xa (2.8 nkat/ml and 2 mM S-2222 (Bz-CO-Ile-Glu-Arg-NH.pNA, Kabi Diagnostica) in water in place of thrombin and, respectively, S-2238.
Experimental for thrombin: as §1

Consider `O=C(CO[C@@H]1[C@@H](NC(=O)c2ccc(-c3ccc(C(=O)N[C@H]4[C@@H](OCc5ccccc5)O[C@@H]5CO[C@@H](c6ccccc6)O[C@H]5[C@@H]4OCC(=O)N[C@H]4[C@@H](OCc5ccccc5)O[C@H](COS(=O)(=O)O)[C@@H](OS(=O)(=O)O)[C@@H]4OS(=O)(=O)O)cc3)cc2)[C@@H](OCc2ccccc2)O[C@@H]2CO[C@@H](c3ccccc3)O[C@@H]12)N[C@H]1[C@@H](OCc2ccccc2)O[C@H](COS(=O)(=O)O)[C@@H](OS(=O)(=O)O)[C@@H]1OS(=O)(=O)O` [Example 11, (Biphenyl-4,4'-dicarboxylic acid) bis-[[benzyl 3-O-[(benzyl 2-desoxy-2,3,4-tri-O-sulfo-a-D-glucopyranoside)-2-yl-carbamoylmethyl]-4,6-(R)-O-benzylidene-2-desoxy-a-D-glucopyranosid-2-yl]-amide] hexasodium salt], for which the IC50 on thrombin (setting [1]) and on Factor Xa (setting [2]) was > 495 µM throughout. Also, in the experiment with rat smooth muscle cells, the “Antiproliferative Activity ri (relative inhibitory activity versus heparin)” value amounted to 1.7.
As to `O=C(N[C@H]1[C@@H](OCc2ccccc2)O[C@H](CNC(=O)[C@H](OS(=O)(=O)O)[C@@H](OS(=O)(=O)O)[C@H](OS(=O)(=O)O)[C@@H](COS(=O)(=O)O)OS(=O)(=O)O)[C@@H](OS(=O)(=O)O)[C@@H]1OS(=O)(=O)O)c1ccc(/C=C\c2ccc(C(=O)N[C@H]3[C@@H](OCc4ccccc4)O[C@H](CNC(=O)[C@H](OS(=O)(=O)O)[C@@H](OS(=O)(=O)O)[C@H](OS(=O)(=O)O)[C@@H](COS(=O)(=O)O)OS(=O)(=O)O)[C@@H](OS(=O)(=O)O)[C@@H]3OS(=O)(=O)O)cc2)cc1` [Example 23, (Z)-stilbene-4,4'-dicarboxylic acid bis-[[benzyl 2,6-didesoxy-6-(2,3,4,5,6-penta-O-sulfo-D-gluconoylamino)-3,4-di-O-sulfo-α-D-glucopyranosid-2-yl]-amide] tetradecasodium salt], the IC50 on thrombin (setting [1]) and at Factor Xa (setting [2]) was > 445 µM throughout. The “Antiproliferative Activity ri (relative inhibitory activity versus heparin)” value with rat smooth muscle cells is 1.8.
As to `O=C(NC[C@H]1O[C@H](OCc2ccccc2)[C@H](NC(=O)c2ccc(NC[C@H](OS(=O)(=O)O)[C@@H](OS(=O)(=O)O)[C@H](OS(=O)(=O)O)[C@@H](COS(=O)(=O)O)OS(=O)(=O)O)c([N+](=O)[O-])c2)[C@@H](OS(=O)(=O)O)[C@@H]1OS(=O)(=O)O)c1cc(C(=O)NC[C@H]2O[C@H](OCc3ccccc3)[C@H](NC(=O)c3ccc(NC[C@H](OS(=O)(=O)O)[C@@H](OS(=O)(=O)O)[C@H](OS(=O)(=O)O)[C@@H](COS(=O)(=O)O)OS(=O)(=O)O)c([N+](=O)[O-])c3)[C@@H](OS(=O)(=O)O)[C@@H]2OS(=O)(=O)O)cc(C(=O)NC[C@H]2O[C@H](OCc3ccccc3)[C@H](NC(=O)c3ccc(NC[C@H](OS(=O)(=O)O)[C@@H](OS(=O)(=O)O)[C@H](OS(=O)(=O)O)[C@@H](COS(=O)(=O)O)OS(=O)(=O)O)c([N+](=O)[O-])c3)[C@@H](OS(=O)(=O)O)[C@@H]2OS(=O)(=O)O)c1` [Example 30, Benzene-1,3,5-tricarboxylic acid tris-[[benzyl 2,6-didesoxy-2-[4-(2,3,4,5,6-penta-O-sulfo-D-glucit-1-ylamino)-3-nitro-benzoylamino]-3,4-di-O-sulfo-a-D-glucopyranosid-6-yl]-amide] henicosasodium salt], the IC50 on thrombin (setting [3]) and at Factor Xa (setting [4]) was > 276 µM throughout. The “Antiproliferative Activity ri (relative inhibitory activity versus heparin)” value in the experiment with rat smooth muscle cells turned out to be 1.6.
As to `O=C(NC[C@H]1O[C@H](OCc2ccccc2)[C@H](NC(=O)c2ccc(NC[C@H](OS(=O)(=O)O)[C@@H](OS(=O)(=O)O)[C@H](OS(=O)(=O)O)[C@@H](COS(=O)(=O)O)OS(=O)(=O)O)c([N+](=O)[O-])c2)[C@@H](OS(=O)(=O)O)[C@@H]1OS(=O)(=O)O)c1ccc(/C=C/c2ccc(C(=O)NC[C@H]3O[C@H](OCc4ccccc4)[C@H](NC(=O)c4ccc(NC[C@H](OS(=O)(=O)O)[C@@H](OS(=O)(=O)O)[C@H](OS(=O)(=O)O)[C@@H](COS(=O)(=O)O)OS(=O)(=O)O)c([N+](=O)[O-])c4)[C@@H](OS(=O)(=O)O)[C@@H]3OS(=O)(=O)O)cc2Cl)cc1` [Example 32, (E)-2-Chloro-stilbene-4,4'-dicarboxylic acid bis-[[benzyl 2,6-didesoxy-2-[4-(2,3,4,5,6-penta-O-sulfo-D-glucit-1-ylamino)-3-nitro-benzoylamino]-3,4-di-O-sulfo-a-D-glucopyranosid-6-yl]-amide] tetradecasodium salt], the 50% inhibitory concentration (IC50) at thrombin (setting [3]) and on Factor Xa (setting [4]) was > 387 µM each time. For the same compound, in the experiment on rat smooth muscle cells, the “Antiproliferative Activity ri (relative inhibitory activity versus heparin)” value stood at 1.4.
For the compound `O=C(NC[C@H]1O[C@H](OCc2ccccc2)[C@H](NC(=O)c2ccc(NC[C@H](OS(=O)(=O)O)[C@@H](OS(=O)(=O)O)[C@H](OS(=O)(=O)O)[C@@H](COS(=O)(=O)O)OS(=O)(=O)O)c([N+](=O)[O-])c2)[C@@H](OS(=O)(=O)O)[C@@H]1OS(=O)(=O)O)c1cccc(C(=O)NC[C@H]2O[C@H](OCc3ccccc3)[C@H](NC(=O)c3ccc(NC[C@H](OS(=O)(=O)O)[C@@H](OS(=O)(=O)O)[C@H](OS(=O)(=O)O)[C@@H](COS(=O)(=O)O)OS(=O)(=O)O)c([N+](=O)[O-])c3)[C@@H](OS(=O)(=O)O)[C@@H]2OS(=O)(=O)O)c1` [Example 33, Isophthalic acid bis-[[benzyl 2,6-didesoxy-2-[4-(2,3,4,5,6-penta-O-sulfo-D-glucit-1-ylamino)-3-nitro-benzoylamino]-3,4-di-O-sulfo-a-D-glucopyranosid-6-yl]-amide] tetradecasodium salt], the IC50 at thrombin (setting [3]) and on Factor Xa (setting [4]) was > 409 µM in each case. In addition, the “Antiproliferative Activity ri (relative inhibitory activity versus heparin)” value in the experiment on rat smooth muscle cells is on record as 1.5.
As to `O=C(N[C@H]1[C@@H](OCc2ccccc2)O[C@H](CN2C(=O)c3ccc4c5c(ccc(c35)C2=O)C(=O)N(C[C@H]2O[C@H](OCc3ccccc3)[C@H](NC(=O)c3ccc(NC[C@H](OS(=O)(=O)O)[C@@H](OS(=O)(=O)O)[C@H](OS(=O)(=O)O)[C@@H](COS(=O)(=O)O)OS(=O)(=O)O)c([N+](=O)[O-])c3)[C@@H](OS(=O)(=O)O)[C@@H]2OS(=O)(=O)O)C4=O)[C@@H](OS(=O)(=O)O)[C@@H]1OS(=O)(=O)O)c1ccc(NC[C@H](OS(=O)(=O)O)[C@@H](OS(=O)(=O)O)[C@H](OS(=O)(=O)O)[C@@H](COS(=O)(=O)O)OS(=O)(=O)O)c([N+](=O)[O-])c1` [Example 34, 2,7-Bis-[benzyl 2,6-didesoxy-2-[3-nitro-4-(2,3,4,5,6-penta-O-sulfo-D-glucit-1-ylamino)-benzoylamino]-3,4-di-O-sulfo-a-D-1 5 glucopyranosid-6-yl]-1,2,3,6,7,8-hexahydro-benzo[lmn][3,8] phenanthroline-1,3,6,8-tetraone tetradecasodium salt], the half-inhibitory concentration (IC50) at thrombin (setting [3]) and on Factor Xa (setting [4]) was > 393 µM each time. Besides, in the experiment on rat smooth muscle cells, the “Antiproliferative Activity ri (relative inhibitory activity versus heparin)” value is reported as 3.9.
With `CN(C[C@H](OS(=O)(=O)O)[C@@H](OS(=O)(=O)O)[C@H](OS(=O)(=O)O)[C@@H](COS(=O)(=O)O)OS(=O)(=O)O)c1ccc(C(=O)N[C@H]2[C@@H](OCc3ccccc3)O[C@H](CNC(=O)c3cccc(C(=O)NC[C@H]4O[C@H](OCc5ccccc5)[C@H](NC(=O)c5ccc(N(C)C[C@H](OS(=O)(=O)O)[C@@H](OS(=O)(=O)O)[C@H](OS(=O)(=O)O)[C@@H](COS(=O)(=O)O)OS(=O)(=O)O)c([N+](=O)[O-])c5)[C@@H](OS(=O)(=O)O)[C@@H]4OS(=O)(=O)O)c3)[C@@H](OS(=O)(=O)O)[C@@H]2OS(=O)(=O)O)cc1[N+](=O)[O-]` [Example 35, Isophthalic acid bis-[[benzyl 2,6-didesoxy-2-[4-[methyl (2,3,4,5,6-penta-O-sulfo-D-glucit-1-yl)-amino]-3-nitro-benzoylamino]-3,4-di-O-sulfo-a-D-glucopyranosid-6-yl]-amide] tetradecasodium salt], the half-inhibitory concentration (IC50) on thrombin (setting [3]) and on Factor Xa (setting [4]) was > 404 µM throughout. In addition, the “Antiproliferative Activity ri (relative inhibitory activity versus heparin)” value in the experiment on rat smooth muscle cells is recorded as 2.5.
With `O=C(NC[C@H]1O[C@H](OCc2ccccc2)[C@H](NC(=O)c2ccc(N(CCOS(=O)(=O)O)C[C@H](OS(=O)(=O)O)[C@@H](OS(=O)(=O)O)[C@H](OS(=O)(=O)O)[C@@H](COS(=O)(=O)O)OS(=O)(=O)O)c([N+](=O)[O-])c2)[C@@H](OS(=O)(=O)O)[C@@H]1OS(=O)(=O)O)c1cccc(C(=O)NC[C@H]2O[C@H](OCc3ccccc3)[C@H](NC(=O)c3ccc(N(CCOS(=O)(=O)O)C[C@H](OS(=O)(=O)O)[C@@H](OS(=O)(=O)O)[C@H](OS(=O)(=O)O)[C@@H](COS(=O)(=O)O)OS(=O)(=O)O)c([N+](=O)[O-])c3)[C@@H](OS(=O)(=O)O)[C@@H]2OS(=O)(=O)O)c1` [Example 36, Isophthalic acid bis-[[benzyl 2,6-didesoxy-2-[4-[(2-hydroxysulfonyloxy-ethyl)-2,3,4,5,6-penta-O-sulfo-D-glucit-1-yl)-amino]-3-nitro-benzoylamino]-3,4-di-O-sulfo-a-D-glucopyranosid-6-yl]-amide] hexadecasodium salt], the IC50 on thrombin (setting [3]) and at Factor Xa (setting [4]) was > 371 µM in each case. The “Antiproliferative Activity ri (relative inhibitory activity versus heparin)” value with rat smooth muscle cells was determined as 2.1.
